Results from US20220378744A1, “COMPOUNDS FOR TREATING PROLIFERATOR-ACTIVATED RECEPTORS (PPAR) MEDIATED DISEASES OR CONDITIONS” (MEDIPURE PHARMACEUTICALS INC., priority 2021, published 2022).

Legend:
human PPARγ (NR1C3) = biological target: T1, human PPARγ (NR1C3) (Homo sapiens, UniProt P37231); assay: Cell-based human PPARγ transactivation (nuclear receptor reporter) assay; settings: for activating PPARγ: at 1 μM
T1 sequence (P37231 1-505): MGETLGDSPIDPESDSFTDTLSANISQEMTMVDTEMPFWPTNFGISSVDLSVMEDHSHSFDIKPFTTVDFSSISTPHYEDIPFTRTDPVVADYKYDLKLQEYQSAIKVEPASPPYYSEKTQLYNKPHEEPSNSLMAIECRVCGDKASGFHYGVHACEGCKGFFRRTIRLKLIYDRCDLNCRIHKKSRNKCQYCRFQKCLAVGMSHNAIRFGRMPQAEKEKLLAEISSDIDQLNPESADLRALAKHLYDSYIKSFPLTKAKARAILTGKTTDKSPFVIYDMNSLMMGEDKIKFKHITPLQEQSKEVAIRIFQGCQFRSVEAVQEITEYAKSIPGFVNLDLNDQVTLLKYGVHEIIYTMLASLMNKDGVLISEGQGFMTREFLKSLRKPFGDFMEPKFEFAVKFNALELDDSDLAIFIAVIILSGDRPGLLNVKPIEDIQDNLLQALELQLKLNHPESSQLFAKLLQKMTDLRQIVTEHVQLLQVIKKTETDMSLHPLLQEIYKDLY
Experimental: (§1) The assay was performed using cell-based human PPAR nuclear receptor reporter assay kits (NR1C1 for PPARα; NR1C2 for PPARδ/β, and NR1C3 for PPARγ, Indigo Biosciences) by following the manufacturer's instruction. In brief, PPAR reporter cells were added to CRM medium (Indigo Biosciences), seeded into wells of a 96-well culture plate and incubated for 5 hours in a cell culture incubator at 37° C. with 5% CO2. The medium was then removed, and the cells were treated with test compounds at different concentrations in CSM medium (Indigo Biosciences) for 24 h inside the incubator. […] DMSO (Sigma) at 0.1% (v/v) was used as negative baseline control (C). Each treatment was tested in duplicate wells. At the end point of the experiments, the treatment medium was discarded and Luciferase Detection Reagent (Indigo Biosciences) was added. Following a 10-minute rest period, the intensity of light emission (in units of “Relative Light Units; RLU”) from each assay well was quantified using a plate-reading luminometer (Synergy H1 plate reader, BioTek). In addition, live cell multiplex assay (Indigo Biosciences) was combined with the activation assays to detect potential cytotoxic effect, if any, of the test chemicals to normalize the signals as per manufacturer's instruction.

human PPARα (NR1C1) = biological target: T2, human PPARα (NR1C1) (Homo sapiens, UniProt Q07869); assay: Cell-based human PPARα transactivation (nuclear receptor reporter) assay; settings: for activating PPARα: at 10 μM; for PPARα transactivation: concentration at which (or starting at which) active: luciferase reporter cells, 24 h treatment, FIG. 1
T2 sequence (Q07869 1-468): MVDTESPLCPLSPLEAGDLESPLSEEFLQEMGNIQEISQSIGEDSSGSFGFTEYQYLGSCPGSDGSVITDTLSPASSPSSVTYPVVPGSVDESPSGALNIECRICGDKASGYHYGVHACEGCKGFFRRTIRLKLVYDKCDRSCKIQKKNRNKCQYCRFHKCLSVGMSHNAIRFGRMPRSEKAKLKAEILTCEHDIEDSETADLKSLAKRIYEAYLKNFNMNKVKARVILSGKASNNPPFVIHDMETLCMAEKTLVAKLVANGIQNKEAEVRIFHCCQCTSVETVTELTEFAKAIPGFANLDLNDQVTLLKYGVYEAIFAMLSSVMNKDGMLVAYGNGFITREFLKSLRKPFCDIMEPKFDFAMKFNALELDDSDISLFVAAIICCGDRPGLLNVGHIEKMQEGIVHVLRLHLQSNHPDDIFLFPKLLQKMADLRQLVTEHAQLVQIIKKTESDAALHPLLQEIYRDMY
Experimental: as §1

[1] = test system: IMQ-stimulated HaCaT cells; assay: Anti-inflammatory effect, IMQ-stimulated HaCaT cell model (IL-6, IL-8 ELISA); assay type: cell-based, human; settings: IMQ 50 μM, 24 h, vs control
Experimental: (§2) Three in vitro models based on HaCaT cell culture were tested. HaCaT cells were maintained as described above in DMEM high glucose (4.5g/L) medium supplemented with 10% FBS and 1% (v/v) penicillin/streptomycin solution (Invitrogen, Thermo Fisher) and kept in an incubator at 37° C. with 5% CO2. For experiments, the cells were seeded at 5×10^4 cells/well in 1 mL of medium to a 24-well culture plate (Nunc, Thermo Fisher) and incubated overnight.
(§3) (1) For the imiquimod (IMQ)-stimulated HaCaT model, IMQ (Alfa Aesar) at 50 μM final concentration was used in the experiments; (2) for TNFα/IL-17A-stimulated-HaCaT model, 2 ng/mL of each cytokine (R&D Systems) was used; and (3) for the lipopolysaccharide (LPS, Sigma) simulated HaCaT cell model, 20 μg/mL LPS was used. For drug chemical treatment the old medium in the culture plates described above was discarded and the corresponding stimulant (IMQ, TNFα/IL-17A, or LPS) with or without test chemicals in 0.5 mL fresh medium was added to each cell well. There were duplicate wells for each treatment. The plate was incubated for another 24 h and the supernatant was collected for cytokine analysis, namely IL-6 and IL-8, using the corresponding ELISA kits (Thermo Fisher).

[2] = test system: IMQ-induced psoriasis in BALB/c mice; assay: IMQ-induced psoriasis model in BALB/c mice, topical creams, PASI score; assay type: in vivo
Experimental: The animal experiment is conducted in accordance with the Guidelines for the Institutional Animal Care and Use Committee. Both male and female BALB/c mice from Rodenta Bioserve, India, at 7-8 weeks of age and 20-25 gram of body weight are housed in a laboratory environment with constant temperature (24.0±1.0° C.) and relative humidity (45.0-55.0%) on a 12 h light/dark cycles. These animals are provided free access to unlimited amounts of food and water during the entire experiment. The animals are divided into 12 groups of 8 mice each and shaved on the back on day 0 for an area of 2×2 cm . Human-like psoriasis in mice is induced by topical application of 5% Imiquimod (IMQ) procured from AK Scientific, USA, and formulated in the base cream at desired percentages in-house, in shaved area and right ear (0.5×0.5 cm). […] Vehicle, clobetasol propionate (CP, Sigma. 0.05% w/w; positive control), test creams, and CBD (Ilesol Pharmaceuticals), respectively, is applied topically on both the shaved back (80 mg cream) and the right ear (20 mg cream) of mice, once daily from day 10 to day 16. The study ends at day 17. At stated time points the severity of psoriasis is evaluated using the PASI score (Psoriasis Area Severity Index: sum of erythema, scaling and thickening, scored independently from 0 to 4 for each mouse; max PASI score=12). Tissue and blood samples are collected for histopathology, biochemistry and immunoassay from each animal at various points.

[3] = test system: LPS-stimulated HaCaT cells; assay: Anti-inflammatory effect, LPS-stimulated HaCaT cell model (IL-6, IL-8 ELISA); assay type: cell-based, human; settings: LPS 20 μg/mL, 24 h
Experimental: as §2
as §3, with “Fisher). The experiments were repeated independently to confirm the observation.” for “Fisher).”

| Structure (SMILES) | activating PPARγ (human PPARγ (NR1C3)) | activating PPARα (human PPARα (NR1C1)) | PPARα transactivation: concentration at which (or starting at which) active (human PPARα (NR1C1)) | further results |
| --- | --- | --- | --- | --- |
| CCCc1cc(C(=O)c2ccc(F)cc2)ccc1OCCCOc1ccc2c(cnn2C(OCC)C(=O)OC)c1 (stereo not drawn) [KV-157, methyl 2-ethoxy-2-(5-(3-(4-(4-fluorobenzoyl)-2 propylphenoxy)propoxy)-1H-indazol-1-yl)acetate] | highly effective | not effective |  |  |
| Cc1nc(-c2ccc(C(F)(F)F)cc2)sc1C(=O)NCc1ccc(OC(C)(C)C(=O)O)cc1 [GW590375, reference compound] |  |  | 0.001 µM |  |
| CCCc1cc(C(=O)c2ccc(F)cc2)ccc1OCCCOc1ccc2c(cnn2CC(=O)O)c1 [MP-154, 2-(5-(3-(4-(4-fluorobenzoyl)-2-propylphenoxy)propoxy)-1H-indazol-1-yl)acetic acid] |  |  | 1 µM | production of IL-6 ([1]; compound at 2.5 μM): no anti-inflammatory effect; production of IL-6 ([1]; compound at 25 μM): significantly inhibited; PPARγ transactivation: concentration at which (or starting at which) active (human PPARγ (NR1C3); FIG. 3): 1,000 nM |
| CCCc1cc(C(=O)c2ccc(-c3ccccc3)cc2)ccc1OCCCOc1ccc2c(cnn2C(OCC)C(=O)OCC)c1 (stereo not drawn) [KV-165, ethyl 2-(5-(3-(4-([1,1′-biphenyl]-4-carbonyl)-2-propylphenoxy)propoxy)-1H-indazol-1-yl)-2-ethoxyacetate] | highly effective | not effective |  |  |
| CCCc1cc(C(=O)c2ccc(-c3ccccc3)cc2)ccc1OCCCOc1ccc2c(cnn2C(OCC)C(=O)O)c1 (stereo not drawn) [KV-180, 2-(5-(3-(4-([1.1′-biphenyl]-4-carbonyl)-2-propylphenoxy)propoxy)-1H-indazol-1-yl)-2-ethoxyacetic acid] | highly effective | not effective |  |  |
| CCCc1cc(C(=O)c2ccc(-c3ccccc3)cc2)ccc1OCCOc1ccc2c(cnn2C(OCC)C(=O)O)c1 (stereo not drawn) [KV 196, 2-(5-(2-(4-([1,1′-biphenyl]-4-carbonyl)-2-propylphenoxy)ethoxy)-1H-indazol-1-yl)-2-ethoxyacetic acid] | highly effective | not effective |  |  |
| CCCc1cc(C(=O)c2ccc(F)cc2)ccc1OCCOc1ccc2c(cnn2C(OCC)C(=O)O)c1 (stereo not drawn) [KV-192, 2-ethoxy-2-(5-(2-(4-(4-fluorobenzoyl)-2-propylphenoxy)ethoxy)-1H-indazol-1-yl)acetic acid] |  | not effective |  | concentration at which PPARγ was activated (human PPARγ (NR1C3)): 10 µM |
| CCCc1cc(C(=O)c2ccc(-c3ccccc3)cc2)ccc1OCCCOc1ccc2c(cnn2CC(=O)OC)c1 [MP-153, methyl 2-(5-(3-(4-([1,1′-biphenyl]-4-carbonyl)-2-propylphenoxy)propoxy)-1H-indazol-1-yl)acetate] |  |  | 5 µM | production of IL-6 ([1]; compound at 2.5 μM): significantly inhibited; production of IL-6 ([1]; compound at 25 μM): significantly inhibited |
| CCC(=O)O[C@]1(C(=O)CCl)[C@@H](C)C[C@H]2[C@@H]3CCC4=CC(=O)C=C[C@]4(C)[C@@]3(F)[C@@H](O)C[C@@]21C [CP, clobetasol propionate, reference compound] |  |  |  | reducing the PASI score ([2]; 0.05% w/w cream, once daily day 10 to day 16, FIG. 11): effective |
| CCCc1cc(C(=O)c2ccc(F)cc2)ccc1OCCOc1ccc2c(cnn2C(OCC)C(=O)OCC)c1 (stereo not drawn) [KV-163A, ethyl 2-ethoxy-2-(5-(2-(4-(4-fluorobenzoyl)-2-propylphenoxy)ethoxy)-1H-indazol-1-yl)acetate] | highly effective | not effective |  |  |
| CCCc1cc(C(=O)c2ccc(-c3ccccc3)cc2)ccc1OCCOc1ccc2c(cnn2C(OCC)C(=O)OCC)c1 (stereo not drawn) [KV-194A, Ethyl 2-(5-(2-(4-([1,1,′-biphenyl]-4-carbonyl)-2-propylphenoxy)ethoxy)-1H-indazol-1-yl)-2-ethoxyacetate] | highly effective | not effective |  |  |
| CCCc1cc(C(=O)c2ccc(-c3ccccc3)cc2)ccc1OCCCOc1ccc2c(cnn2CC(=O)O)c1 [MP-151, 2-(5-(3-(4-([1,1′-biphenyl]-4-carbonyl)-2-propylphenoxy)propoxy)-1H-indazol-1-yl)acetic acid] |  |  | 5 µM | production of IL-6 ([1]; compound at 2.5 μM): significantly inhibited; production of IL-6 ([1]; compound at 25 μM): significantly inhibited; tolerability in mice ([2]; topical, seven-day consecutive treatment, even at 10% creams): well tolerated; visual damage on the skin ([2]; topical, seven-day consecutive treatment, up to 10% creams): No visual damage; reduction of IL-8 production compared with rosiglitazone and fenofibrate ([3]; 25 μM): more active; production of IL-6 ([3]; compound at 25 uM): reduced |
